According to patent publication US20240299422A1, “Topical Cannabinoid Compositions and Methods for Treating Skin Diseases” (Avicanna Inc., priority 2021, published 2024):

Assay: Plasma profile of CBD after topical application in rats
Assay type: in vivo, Sprague Dawley Rats
Procedure: 12 Female Sprague Dawley Rats (150-200 g) were purchased from Charles River Laboratories (Wilmington, MA). Rats were allowed to acclimatise for one week prior to commencement of the study.
At day 0, rats were anaesthetised using 3% isoflurane via inhalation. The skin on the dorsal side of the rats was shaved and a circular area of approximately 18.09 cm^2 was marked onto the surface of the skin. Twice daily, cream was applied to the dorsal surface of the skin using a 1 ml syringe that was prefilled with the composition described in Example 1 at a dose of 15 mg/kg of cannabidiol (CBD). Following the application of the cream and in order to prevent the cream from being removed, dermal application jackets were applied to each of the rats. These were maintained on the animals for the duration of the study (i.e. 7 days). Every 24 hours, blood was collected by puncturing the saphenous vein with a 20 G needle. At each time point, approximately 200 μL of blood was collected into Microvette™ 200 ZGel collection tubes (Sarstedt). Blood samples were centrifuged at 1.5×104 RPM for 5 mins. Following this, plasma was isolated and stored at −80° C. until the end of the study when all samples were analysed simultaneously. […]
Plasma (20 μL) was added to a 1:1 (v/v) solution of acetonitrile:ethyl acetate at a ratio of 1:10 (plasma:organic solvent). […] The samples were reconstituted with LC-MS grade methanol prior to analysed by mass spectrometry.
LC analyses were performed on an Agilent 1260 LC infinity system consisting of a binary pump, a thermostated autosampler and a thermostated column compartment (Agilent, Waldbronn, Germany). Samples were analyzed on an Agilent Poroshell 120 C18 column (150×2.1 mm; 1.9 μm particle size) (Agilent, Waldbronn, Germany). […]
Tandem mass spectrometry was performed using a TSQ Endura™ Triple Quadrupole Mass Spectrometer (Thermo Fisher Scientific, Waltham, MA) operating in electrospray ionization (ESI). Xcalibur software (Thermo Fisher Scientific) was used for instrument control, data acquisition, qualitative and quantitative data analyses. […]

Question: With `C=C(C)[C@@H]1CCC(C)=C[C@H]1c1c(O)cc(CCCCC)cc1O` [CBD, cannabidiol] as the compound, how does the “Time of peak plasma concentration” value (topical composition of Example 1, 15 mg/kg CBD twice daily for 7 days, female rats) read?
Answer: 96 h

Question: And the “Peak plasma concentration of CBD” value (topical composition of Example 1, 15 mg/kg CBD twice daily for 7 days, female rats, n=12)?
Answer: 21.08 ± 3.54 ng/mL

Question: What about the “Plasma concentration of CBD by 168 h” value (topical composition of Example 1, 15 mg/kg twice daily, LOQ of LC-MS method 5 ng/ml) of the same compound?
Answer: below the LOQ
